# Patent publication US8304447B2, “2-acylaminopropoanol-type glucosylceramide synthase inhibitors” (Genzyme Corporation, priority 2007, dated 2012)
# Tested on: GM3
# Assay: GM3 Elisa assay
# Format: cell-based
# Details: 48 h, Table 1; B16-FO cells, 2 days incubation; read-out: IC50_uM_Mean
# Description: B16-FO cells from ATCC (American Tissue Culture Collection) were grown in DMEM media (ATCC) with 10% Fetal Bovine Serum (Hyclone) and Pen/Step/Glutamine (Biowhittaker). 4000 cells per well were plated on collagen coated plates (BD) and allowed to attach for 6 hours in an incubator (37 degrees, 5% CO2). After 6 hours the compounds and controls were added to the wells, the plates mixed and returned to the incubator for 2 days. Day of assay the cells were fixed for 20 minutes with 1% formaldehyde and then washed with Tris Buffered Saline (TBS) 3 times, 150 μl of TBS was left in the wells and 50 μl of goat serum (Invitrogen) was added, the plates mixed and incubated for 1 hour at room temperature. The plates were flicked and the cells incubated with the monoclonal Antibody to GM3 (NeuAc) (Cosmo) for 45 minutes as room temperature. The plates were then washed 3 times with TBS, leaving 150 μl of TBS in the wells and Peroxidase AffinPure F (ab′) 2 frag Gt Anti-mouse IgM, μ Chain Specific (Jackson Immuno Research) was added in 50 μl, the plates mixed and incubated for 45 minutes at room temperature. The plates were washed 3 times with TBS, flicked and blotted and 100 μl of Quantablu (Pierce) was added to the wells and incubated for 1 hour then read on a Fluorometer at Ex 325 and Em 420. The data was then analyzed using standard programs.
row,IC50,SMILES
1,100 to 1000 nM,"O=C(CCCC(=O)c1ccccc1)N[C@H](CN1CCCC1)[C@H](O)c1ccc2c(c1)OCCO2 [Compound 113, N-((1R,2R)-1-(2,3-dihydrobenzo[β][1,4]dioxin-6-yl)-1-hydroxy-3-(pyrrolidin-1-yl)propan-2-yl)-5-oxo-5-phenylpentanamide]"
2,100 to 1000 nM,"CCOc1ccc(C(=O)CCC(=O)N[C@H](CN2CCCC2)[C@H](O)c2ccc3c(c2)OCCO3)cc1 [Compound 127, N-((1R,2R)-1-(2,3-dihydrobenzo[b][1,4]dioxin-6-yl)-1-hydroxy-3-(pyrrolidin-1-yl)propan-2-yl)-4-(4-ethoxyphenyl)-4-oxobutanamide]"
3,3000 to 10000 nM,"Cc1nc(-c2ccc(NC(=O)N[C@H](CN3CCCC3)[C@H](O)c3ccc4c(c3)OCCO4)cc2)cs1 [Compound 133, 1-((1R,2R)-1-(2,3-dihydrobenzo[β][1,4]dioxin-6-yl)-1-hydroxy-3-(pyrrolidin-1-yl)propan-2-yl)-3-(4-(2-methylthiazol-4-yl)phenyl)urea]"
4,≤ 100 nM,"COc1c(C)cc(C(=O)CCCCC(=O)N[C@H](CN2CCCC2)[C@H](O)c2ccc3c(c2)OCCO3)cc1C [Compound 140, N-((1R,2R)-1-(2,3-dihydrobenzo[β][1,4]dioxin-6-yl)-1-hydroxy-3-(pyrrolidin-1-yl)propan-2-yl)-6-(4-methoxy-3,5-dimethylphenyl)-6-oxohexanamide]"
5,≤ 100 nM,"COc1ccc(C(=O)CCCCC(=O)N[C@H](CN2CCCC2)[C@H](O)c2ccc3c(c2)OCCO3)cc1 [Compound 141, N-((1R,2R)-1-(2,3-dihydrobenzo[β][1,4]dioxin-6-yl)-1-hydroxy-3-(pyrrolidin-1-yl)propan-2-yl)-6-(4-methoxyphenyl)-6-oxohexanamide]"
6,≤ 100 nM,"COc1ccc(C(=O)CCCCCCC(=O)N[C@H](CN2CCCC2)[C@H](O)c2ccc3c(c2)OCCO3)cc1 [Compound 144, N-((1R,2R)-1-(2,3-dihydrobenzo[β][1,4]dioxin-6-yl)-1-hydroxy-3-(pyrrolidin-1-yl)propan-2-yl)-8-(4-methoxyphenyl)-8-oxooctanamide]"
7,100 to 1000 nM,"COc1ccc(C(=O)CCC(=O)N[C@H](CN2CCCC2)[C@H](O)c2ccc3c(c2)OCCO3)cc1 [Compound 154, N-((1R,2R)-1-(2,3-dihydrobenzo[b][1,4]dioxin-6-yl)-1-hydroxy-3-(pyrrolidin-1-yl)propan-2-yl)-4-(4-methoxyphenyl)-4-oxobutanamide]"
8,100 to 1000 nM,"CC(C)(C)c1ccc(C(=O)CCCCC(=O)N[C@H](CN2CCCC2)[C@H](O)c2ccc3c(c2)OCCO3)cc1 [Compound 155, 6-(4-tert-butylphenyl)-N-((1R,2R)-1-(2,3-dihydrobenzo[β][1,4]dioxin-6-yl)-1-hydroxy-3-(pyrrolidin-1-yl)propan-2-yl)-6-oxohexanamide]"
9,≤ 100 nM,"COc1ccc(C(=O)CCCCCC(=O)N[C@H](CN2CCCC2)[C@H](O)c2ccc3c(c2)OCCO3)cc1 [Compound 156, N-((1R,2R)-1-(2,3-dihydrobenzo[β][1,4]dioxin-6-yl)-1-hydroxy-3-(pyrrolidin-1-yl)propan-2-yl)-7-(4-methoxyphenyl)-7-oxoheptanamide]"
10,≤ 100 nM,"O=C(CCCCCC(=O)c1ccc(Cl)cc1)N[C@H](CN1CCCC1)[C@H](O)c1ccc2c(c1)OCCO2 [Compound 159, 7-(4-chlorophenyl)-N-((1R,2R)-1-(2,3-dihydrobenzo[β][1,4]dioxin-6-yl)-1-hydroxy-3-(pyrrolidin-1-yl)propan-2-yl)-7-oxoheptanamide]"
11,100 to 1000 nM,"CC(C)(C)c1ccc(C(=O)CCCCCC(=O)N[C@H](CN2CCCC2)[C@@H](O)c2ccc3c(c2)OCCO3)cc1 [Compound 160, 7-(4-tert-butylphenyl)-N-((1R,2R)-1-(2,3-dihydrobenzo[β][1,4]dioxin-6-yl)-1-hydroxy-3-(pyrrolidin-1-yl)propan-2-yl)-7-oxoheptanamide]"
12,≤ 100 nM,"CC(C)Oc1ccc(C(=O)CCC(=O)N[C@H](CN2CCCC2)[C@@H](O)c2ccc3c(c2)OCCO3)cc1 [Compound 162, N-((1R,2R)-1-(2,3-dihydrobenzo[β][1,4]dioxin-6-yl)-1-hydroxy-3-(pyrrolidin-1-yl)propan-2-yl)-4-(4-isopropoxyphenyl)-4-oxobutanamide]"
13,≤ 100 nM,"CC(C)Oc1ccc(C(=O)CCCCC(=O)N[C@H](CN2CCCC2)[C@H](O)c2ccc3c(c2)OCCO3)cc1 [Compound 181, N-((1R,2R)-1-(2,3-dihydrobenzo[b][1,4]dioxin-6-yl)-1-hydroxy-3-(pyrrolidin-1-yl)propan-2-yl)-6-(4-isopropoxyphenyl)-6-oxohexanamide]"
14,100 to 1000 nM,"CC(C)CC(=O)c1ccc(OCCC(=O)N[C@H](CN2CCCC2)[C@H](O)c2ccc3c(c2)OCCO3)cc1 [Compound 187, N-((1R,2R)-1-(2,3-dihydrobenzo[β][1,4]dioxin-6-yl)-1-hydroxy-3-(pyrrolidin-1-yl)propan-2-yl)-3-(4-(3-methylbutanoyl)phenoxy)propanamide (2S,3S)-2,3-dihydroxysuccinate]"
15,100 to 1000 nM,"CCc1ccc(OCCC(=O)N[C@H](CN2CCCC2)[C@H](O)c2ccc3c(c2)OCCO3)cc1 [Compound 188, N-((1R,2R)-1-(2,3-dihydrobenzo[b][1,4]dioxin-6-yl)-1-hydroxy-3-(pyrrolidin-1-yl)propan-2-yl)-3-(4-ethylphenoxy)propanamide (2R,3R)-2,3-dihydroxysuccinate]"
16,100 to 1000 nM,"CCC(=O)c1ccc(OCCC(=O)N[C@H](CN2CCCC2)[C@H](O)c2ccc3c(c2)OCCO3)cc1 [Compound 189, N-((1R,2R)-1-(2,3-dihydrobenzo[b][1,4]dioxin-6-yl)-1-hydroxy-3-(pyrrolidin-1-yl)propan-2-yl)-3-(4-propionylphenoxy)propanamide (2R,3R)-2,3-dihydroxysuccinate]"
17,≤ 100 nM,"COc1ccc(C(=O)CCCC(=O)N[C@H](CN2CCCC2)[C@H](O)c2ccc3c(c2)OCCO3)cc1 [Compound 191, N-((1R,2R)-1-(2,3-dihydrobenzo[β][1,4]dioxin-6-yl)-1-hydroxy-3-(pyrrolidin-1-yl)propan-2-yl)-5-(4-methoxyphenyl)-5-oxopentanamide (2R,3R)-2,3-dihydroxysuccinate]"
18,100 to 1000 nM,"CC(=O)CCc1ccc(OCCC(=O)N[C@H](CN2CCCC2)[C@H](O)c2ccc3c(c2)OCCO3)cc1 [Compound 193, N-((1R,2R)-1-(2,3-dihydrobenzo[b][1,4]dioxin-6-yl)-1-hydroxy-3-(pyrrolidin-1-yl)propan-2-yl)-3-(4-(3-oxobutyl)phenoxy)propanamide (2R,3R)-2,3-dihydroxysuccinate]"
19,≤ 100 nM,"COc1ccc(OCCCC(=O)N[C@H](CN2CCCC2)[C@H](O)c2ccc3c(c2)OCCO3)cc1 [Compound 197, N-((1R,2R)-1-(2,3-dihydrobenzo[β][1,4]dioxin-6-yl)-1-hydroxy-3-(pyrrolidin-1-yl)propan-2-yl)-4-(4-methoxyphenoxy)butanamide (2S,3S)-2,3-dihydroxysuccinate]"
20,100 to 1000 nM,"COCCc1ccc(OCCC(=O)N[C@H](CN2CCCC2)[C@H](O)c2ccc3c(c2)OCCO3)cc1 [Compound 202, N-((1R, R)-1-(2,3-dihydrobenzo[β][1,4]dioxin-6-yl)-1-hydroxy-3-(pyrrolidin-1-yl)propan-2-yl)-3-(4-(2-methoxyethyl)phenoxy)propanamide (2R, R)-2,3-dihydroxysuccinate]"

# Same assay, conditions: 48 h, Table 2; B16-FO cells, 2 days incubation; read-out: IC50_uM_Mean
row,IC50,SMILES
1,3000 to 10000 nM,O=C(N[C@H](CN1CCCC1)[C@H](OC(=O)c1ccc(-c2ccccn2)s1)c1ccc2c(c1)OCCO2)c1ccc(-c2ccccn2)s1 [Compound 242]
2,≤ 100 nM,CC(=O)O[C@H](c1ccc2c(c1)OCCO2)[C@@H](CN1CCCC1)NC(=O)NCc1ccccc1 [Compound 243]
3,≤ 100 nM,O=C(NCc1ccc(Cl)cc1)N[C@H](CN1CCCC1CN1CCCC1)[C@H](O)c1ccc2c(c1)OCCO2 (stereo partly drawn) [Compound 244]
4,3000 to 10000 nM,COc1ccc(CCC(=O)N[C@H](CN2CCCC2CN2CCCC2)[C@H](O)c2ccc3c(c2)OCCO3)cc1Cl (stereo partly drawn) [Compound 245]
5,≤ 100 nM,"COc1ccc([C@@H](O)[C@@H](CN2CCCC2)NC(=O)CCOc2ccc(C)cc2)cc1 [Compound 247, N-((1R,2R)-1-hydroxy-1-(4-methoxyphenyl)-3-(pyrrolidin-1-yl)propan-2-yl)-3-(p-tolyloxy)propanamide]"
6,100 to 1000 nM,COc1ccc([C@@H](OC(=O)CCOc2ccc(C)cc2)[C@@H](CN2CCCC2)NC(=O)CCOc2ccc(C)cc2)cc1 [Compound 248]
7,1000 to 3000 nM,COc1ccc([C@@H](O)[C@@H](CN2CCCC2)NC(=O)Nc2ccc(OC(F)(F)F)cc2)cc1 [Compound 249]
8,100 to 1000 nM,COc1ccc([C@@H](OC(=O)Cc2ccc(C(F)(F)F)cc2)[C@@H](CN2CCCC2)NC(=O)Cc2ccc(C(F)(F)F)cc2)cc1 [Compound 250]

# Same assay, conditions: Table 1; B16-FO cells, 2 days incubation; read-out: IC50_uM_Mean
row,IC50,SMILES
1,≤ 100 nM,"O=C(CCC(=O)c1ccc(C(F)(F)F)cc1)N[C@H](CN1CCCC1)[C@H](O)c1ccc2c(c1)OCCO2 [Compound 176, N-((1R,2R)-1-(2,3-dihydrobenzo[β][1,4]dioxin-6-yl)-1-hydroxy-3-(pyrrolidin-1-yl)propan-2-yl)-4-oxo-4-(4-(trifluoromethyl)phenyl)butanamide (2S,3S)-2,3-dihydroxysuccinate]"

# Same assay, conditions: Table 2; B16-FO cells, 2 days incubation; read-out: IC50_uM_Mean
row,IC50,SMILES
1,1000 to 3000 nM,COc1ccc([C@@H](O)[C@@H](CN2CCCC2)NC(=O)OCc2ccccc2)cc1 [Compound 246]
